The record followed here is patent publication US11970453B1, “2-ethoxy-8-(4-fluorobenzylidene)-4-(4-fluorophenyl)-5,6,7,8-tetrahydroquinoline-3-carbonitrile as an antimicrobial compound” (KING FAISAL UNIVERSITY, priority 2023, dated 2024).

One series deals with Escherichia coli. Nature of the series: Antimicrobial screening, agar dilution method. The conditions noted are these: after 10, 20, 40 and 60 minutes at all dilutions 1:100, 1:200, 1:400, 1:800. The format is cell-based. On the procedure: (§1) The antibacterial properties of the synthesized compound 2-ethoxy-8-(4-fluorobenzylidene)-4-(4-fluorophenyl)-5,6,7,8-tetrahydroquinoline-3-carbonitrile were studied by the method of agar dilution. Test solutions of each compound was prepared in concentration of 1% using dimethylformamide as a solvent then they are diluted in physiological solution to obtain the final experimental dilutions 1:100, 1:200, 1:400, 1:800. The effects of these substances are compared with furacillin in a controllable study. The testing microbes used were gram positive bacteria Staphylococcus aureus, gram negative bacteria Pseudomonas aeruginosa and Escherichia coli and Candida albicans fungus. The experiments used for this survey were meat-pentonlu agar (EPA) for cultivation of bacteria and Saburo environment for the fungus. Each experiment used 1 mL of test solution on each plate […]. Two drops of emulsified with microbes feel were added. All experimental samples were taken from the agar after 10, 20, 40, 60 minutes in the environment on the basis of Patrk planted. The bacteria were cultivated at a temperature of 37° C. for 1 day and the mushroom was kept in a thermostat for […] at a temperature of 28° C. Then results were checked.

The subject of a further series is Staphylococcus aureus. Nature of the series: Antimicrobial screening, agar dilution method. The class given is cell-based. The conditions noted are these: after 10, 20, 40 and 60 minutes at all dilutions 1:100, 1:200, 1:400, 1:800. On the procedure: as §1
Another series deals with Candida albicans. Nature of the series: Antimicrobial screening, agar dilution method. The format is cell-based. The conditions noted are these: after 10, 20, 40 and 60 minutes at all dilutions 1:100, 1:200, 1:400, 1:800. On the procedure: as §1
A further series relates to Pseudomonas aeruginosa. Nature of the series: Antimicrobial screening, agar dilution method. The conditions noted are these: after 10, 20, 40 and 60 minutes at all dilutions 1:100, 1:200, 1:400, 1:800. The class given is cell-based. On the procedure: as §1

`CCOc1nc2c(c(-c3ccc(F)cc3)c1C#N)CCC/C2=C\c1ccc(F)cc1` [2-ethoxy-8-(4-fluorobenzylidene)-4-(4-fluorophenyl)-5,6,7,8-tetrahydroquinoline-3-carbonitrile] returned a melting point of 151 to 153 °C. In the series with Escherichia coli, the inhibition activity entry is “highest inhibition activity”. For the same compound, the inhibition activity entry with Staphylococcus aureus is recorded as “highest inhibition activity”. The inhibition activity result in the series on Candida albicans was “highest inhibition activity”. Moreover, in the series on Pseudomonas aeruginosa, the inhibition activity entry is listed as “highest inhibition activity”.
